In ChEMBL document CHEMBL4680085 (J Med Chem, 2016):
The source made the active and inactive calls. No cut-off for these calls is given here.

Experiments:
Acetylcholinesterase [1] = target: Acetylcholinesterase (Electrophorus electricus, UniProt O42275); assay: Inhibition of Electrophorus electricus AChE pre-incubated for 10 mins before addition of acetylthiocholine iodide substrate and further incubated for 15 mins by Ellman's method
Acetylcholinesterase [2] = target: T1, Acetylcholinesterase (Homo sapiens, UniProt P22303); assay: Inhibition of AChE in human erythrocyte hemo-lyzates pre-incubated for 5 mins before addition of acetylthiocholine iodide substrate by Ellman's method; format: tissue-based
Cholinesterase [3] = target: T2, Cholinesterase (Homo sapiens, UniProt P06276); assay: Inhibition of BuChE in human erythrocyte hemo-lyzates pre-incubated for 5 mins before addition of butyrylthiocholine iodide substrate by Ellman's method; format: tissue-based
[4] = Effective permeability at 100 uM after 3 to 6 hrs by PAMPA assay; format: ADME; conditions: time 3-6 hrs, read-out: Peff
Acetylcholinesterase [5] = target: T1, Acetylcholinesterase; assay: Mixed type inhibition of AChE in human erythrocyte hemo-lyzates using acetylthiocholine iodide substrate by Ellman's method based Lineweaver-Burk plot analysis; format: tissue-based
Cholinesterase [6] = target: T2, Cholinesterase; assay: Competitive type inhibition of BuChE in human erythrocyte hemo-lyzates using […] substrate by Ellman's method based Lineweaver-Burk plot analysis; format: tissue-based
[7] = Ratio of antioxidant activity of melatonin to antioxidant activity of test compound assessed as AAPH radical scavenging activity incubated for 15 mins by ORAC-FL method relative to Trolox; format: functional
[8] = Ratio of antioxidant activity of FA to antioxidant activity of test compound assessed as AAPH radical scavenging activity incubated for 15 mins by ORAC-FL method relative to Trolox; format: functional
[9] = Ratio of antioxidant activity of LA to antioxidant activity of test compound assessed as AAPH radical scavenging activity incubated for 15 mins by ORAC-FL method relative to Trolox; format: functional
SH-SY5Y [10] = assay: Neuroprotection in human SH-SY5Y cells assessed as reduction in beta-amyloid peptide (1-40)-induced cell death at 1 uM incubated for 24 hrs by MTT assay; format: functional; design: scale not given: the % may be the effect or the level left
SH-SY5Y [11] = assay: Neuroprotection in human SH-SY5Y cells assessed as reduction in beta-amyloid peptide (1-40)-induced cell death at 3 uM incubated for 24 hrs by MTT assay; format: functional; design: scale not given: the % may be the effect or the level left
SH-SY5Y [12] = assay: Neuroprotection in human SH-SY5Y cells assessed as reduction in beta-amyloid peptide (1-42)-induced cell death at 3 uM incubated for 24 hrs by MTT assay; format: functional; design: scale not given: the % may be the effect or the level left
SH-SY5Y [13] = assay: Neuroprotection in human SH-SY5Y cells assessed as reduction in beta-amyloid peptide (1-42)-induced cell death at 1 uM incubated for 24 hrs by MTT assay; format: functional; design: scale not given: the % may be the effect or the level left
SH-SY5Y [14] = assay: Neuroprotection in human SH-SY5Y cells assessed as reduction in H2O2-induced cell death at 1 uM incubated for 24 hrs by MTT assay; format: functional; design: scale not given: the % may be the effect or the level left
SH-SY5Y [15] = assay: Neuroprotection in human SH-SY5Y cells assessed as reduction in H2O2-induced cell death at 3 uM incubated for 24 hrs by MTT assay; format: functional; design: scale not given: the % may be the effect or the level left
SH-SY5Y [16] = assay: Neuroprotection in human SH-SY5Y cells assessed as reduction in Rotenone/Oligomycin A -induced cell death at 1 uM incubated for 24 hrs by MTT assay; format: functional; design: scale not given: the % may be the effect or the level left
SH-SY5Y [17] = assay: Neuroprotection in human SH-SY5Y cells assessed as reduction in Rotenone/Oligomycin A -induced cell death at 3 uM incubated for 24 hrs by MTT assay; format: functional; design: scale not given: the % may be the effect or the level left
[18] = target: T3, Nuclear factor erythroid 2-related factor 2 (Homo sapiens) (UniProt Q16236); assay: Activation of NRF2 in human MCF-7/AREc32 cells at 3 uM incubated for 24 hrs by luciferase reporter gene assay; format: cell-based; conditions: MCF7, filed as activator
T3 sequence (whole entry): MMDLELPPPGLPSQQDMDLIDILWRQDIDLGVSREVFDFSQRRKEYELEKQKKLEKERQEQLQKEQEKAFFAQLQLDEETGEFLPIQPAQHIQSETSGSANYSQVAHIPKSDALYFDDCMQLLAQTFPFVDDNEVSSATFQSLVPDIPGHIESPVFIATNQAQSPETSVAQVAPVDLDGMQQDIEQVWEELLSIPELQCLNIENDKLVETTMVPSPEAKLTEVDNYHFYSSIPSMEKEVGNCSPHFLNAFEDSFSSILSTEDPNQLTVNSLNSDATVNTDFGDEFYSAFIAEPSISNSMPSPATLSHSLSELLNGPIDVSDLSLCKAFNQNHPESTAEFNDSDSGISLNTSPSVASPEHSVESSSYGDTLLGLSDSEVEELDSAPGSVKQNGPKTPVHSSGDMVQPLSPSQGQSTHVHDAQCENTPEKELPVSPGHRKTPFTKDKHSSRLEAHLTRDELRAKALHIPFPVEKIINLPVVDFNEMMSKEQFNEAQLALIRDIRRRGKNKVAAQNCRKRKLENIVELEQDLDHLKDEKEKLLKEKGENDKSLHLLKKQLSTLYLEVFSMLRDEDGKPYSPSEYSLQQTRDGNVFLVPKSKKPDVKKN

[19] = target: T3, Nuclear factor erythroid 2-related factor 2 (Homo sapiens); assay: Activation of NRF2 in human MCF-7/AREc32 cells at 10 to 30 uM incubated for 24 hrs by luciferase reporter gene assay; format: cell-based; conditions: MCF7, filed as activator, dose 10-30 µM
[20] = target: T3, Nuclear factor erythroid 2-related factor 2 (Homo sapiens); assay: Activation of NRF2 in human MCF-7/AREc32 cells assessed as concentration required to double Nrf2 transcriptional pathway by measuring specific luciferase reporter activity incubated for 24 hrs by luciferase reporter gene assay; format: cell-based
Cholinesterase [21] = target: Cholinesterase (Equus caballus, UniProt P81908)
Description: Inhibition of horse serum BuChE pre-incubated for 10 mins before addition of butyrylthiocholine iodide substrate and further incubated for 15 mins by Ellman's method

in vitro [22] = conditions: human, HepG2 cells
Description: Toxicity in human HepG2 cells assessed as cell viability at 100 uM by MTT assay relative to control

in vitro [23] = conditions: human, HepG2 cells; remark: listed apart in the source
Description: Toxicity in human HepG2 cells assessed as cell viability at 300 uM by MTT assay relative to control

in vitro [24] = conditions: human, HepG2 cells; remark: listed apart in the source
Description: Toxicity in human HepG2 cells assessed as cell viability at 1000 uM by MTT assay relative to control

[25] = Antioxidant activity assessed as decrease in peak intensity of hydroxyl radicals at 100 uM by N-oxide self-spin assay relative to control; format: functional; design: scale not given: the % may be the effect or the level left
SH-SY5Y [26] = assay: Neuroprotection in human SH-SY5Y cells assessed as reduction in beta-amyloid peptide (1-40)-induced cell death at 0.01 uM incubated for 24 hrs by MTT assay; format: functional; design: scale not given: the % may be the effect or the level left
SH-SY5Y [27] = assay: Neuroprotection in human SH-SY5Y cells assessed as reduction in beta-amyloid peptide (1-40)-induced cell death at >0.01 uM incubated for 24 hrs by MTT assay; format: functional, cell-based; conditions: dose microM >0.01, time […]
SH-SY5Y [28] = assay: Neuroprotection in human SH-SY5Y cells assessed as reduction in beta-amyloid peptide (1-42)-induced cell death at 0.01 uM incubated for 24 hrs by MTT assay; format: functional; design: scale not given: the % may be the effect or the level left
SH-SY5Y [29] = assay: Neuroprotection in human SH-SY5Y cells assessed as reduction in beta-amyloid peptide (1-42)-induced cell death at >0.01 uM incubated for 24 hrs by MTT assay; format: functional, cell-based; conditions: dose microM >0.01, time […]
SH-SY5Y [30] = assay: Neuroprotection in human SH-SY5Y cells assessed as reduction in H2O2-induced cell death at 0.01 uM incubated for 24 hrs by MTT assay; format: functional; design: scale not given: the % may be the effect or the level left
SH-SY5Y [31] = assay: Neuroprotection in human SH-SY5Y cells assessed as reduction in H2O2-induced cell death at >0.01 uM incubated for 24 hrs by MTT assay; format: functional, cell-based; conditions: dose microM >0.01, time […]
SH-SY5Y [32] = assay: Neuroprotection in human SH-SY5Y cells assessed as reduction in Rotenone/Oligomycin A -induced cell death at 0.01 uM incubated for 24 hrs by MTT assay; format: functional; design: scale not given: the % may be the effect or the level left
SH-SY5Y [33] = assay: Neuroprotection in human SH-SY5Y cells assessed as reduction in Rotenone/Oligomycin A -induced cell death at >0.01 uM incubated for 24 hrs by MTT assay; format: functional, cell-based; conditions: dose microM >0.01, time […]
[34] = target: Cholinesterase (Equus caballus) (UniProt P81908); assay: Potency index, ratio of IC50 for tacrine to IC50 for test compound for inhibition of horse serum BuChE
[35] = target: Acetylcholinesterase (Electrophorus electricus) (UniProt O42275); assay: Potency index, ratio of IC50 for tacrine to IC50 for test compound for inhibition of Electrophorus electricus AChE
Acetylcholinesterase [36] = target: T1, Acetylcholinesterase; assay: Potency index, ratio of IC50 for tacrine to IC50 for test compound for inhibition of AChE in human erythrocyte hemo-lyzates pre-incubated for 5 mins before addition of acetylthiocholine iodide substrate by Ellman's method; format: tissue-based
Cholinesterase [37] = target: T2, Cholinesterase; assay: Potency index, ratio of IC50 for tacrine to IC50 for test compound for inhibition of BuChE in human erythrocyte hemo-lyzates pre-incubated for 5 mins before addition of butyrylthiocholine iodide substrate by Ellman's method; format: tissue-based

T1 sequence (P22303 whole entry): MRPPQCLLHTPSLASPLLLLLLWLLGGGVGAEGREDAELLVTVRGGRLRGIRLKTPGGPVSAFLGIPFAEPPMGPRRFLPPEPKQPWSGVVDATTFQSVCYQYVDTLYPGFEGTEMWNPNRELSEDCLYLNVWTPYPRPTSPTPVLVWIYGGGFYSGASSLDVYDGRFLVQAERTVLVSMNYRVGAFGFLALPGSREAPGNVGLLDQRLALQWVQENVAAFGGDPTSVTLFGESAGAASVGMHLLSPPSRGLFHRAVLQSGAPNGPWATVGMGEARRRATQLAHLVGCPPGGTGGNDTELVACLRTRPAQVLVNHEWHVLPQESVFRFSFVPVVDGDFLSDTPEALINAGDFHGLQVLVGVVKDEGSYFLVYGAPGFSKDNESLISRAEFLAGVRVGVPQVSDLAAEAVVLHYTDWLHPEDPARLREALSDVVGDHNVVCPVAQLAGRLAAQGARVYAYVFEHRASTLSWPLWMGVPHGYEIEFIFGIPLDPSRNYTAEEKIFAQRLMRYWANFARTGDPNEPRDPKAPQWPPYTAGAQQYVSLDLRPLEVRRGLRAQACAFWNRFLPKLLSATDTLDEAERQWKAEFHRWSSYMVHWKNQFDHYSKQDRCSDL
T2 sequence (P06276 whole entry): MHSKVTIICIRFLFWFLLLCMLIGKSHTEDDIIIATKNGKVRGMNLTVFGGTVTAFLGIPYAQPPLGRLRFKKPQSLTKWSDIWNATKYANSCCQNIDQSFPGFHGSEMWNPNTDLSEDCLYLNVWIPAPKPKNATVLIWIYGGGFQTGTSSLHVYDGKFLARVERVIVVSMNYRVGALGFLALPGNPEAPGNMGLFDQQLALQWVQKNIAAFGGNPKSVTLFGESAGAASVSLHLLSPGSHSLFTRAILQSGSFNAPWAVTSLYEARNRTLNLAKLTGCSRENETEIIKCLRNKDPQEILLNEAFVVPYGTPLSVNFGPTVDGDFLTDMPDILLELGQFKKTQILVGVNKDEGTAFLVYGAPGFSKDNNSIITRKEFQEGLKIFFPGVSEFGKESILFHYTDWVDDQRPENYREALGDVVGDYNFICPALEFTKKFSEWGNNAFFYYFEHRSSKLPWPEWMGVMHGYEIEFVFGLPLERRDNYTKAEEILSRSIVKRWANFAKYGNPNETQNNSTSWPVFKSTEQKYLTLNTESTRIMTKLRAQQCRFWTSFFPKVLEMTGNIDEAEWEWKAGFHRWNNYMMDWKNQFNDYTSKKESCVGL
Acetylcholinesterase (Electrophorus electricus, UniProt O42275), sequence (O42275 whole entry): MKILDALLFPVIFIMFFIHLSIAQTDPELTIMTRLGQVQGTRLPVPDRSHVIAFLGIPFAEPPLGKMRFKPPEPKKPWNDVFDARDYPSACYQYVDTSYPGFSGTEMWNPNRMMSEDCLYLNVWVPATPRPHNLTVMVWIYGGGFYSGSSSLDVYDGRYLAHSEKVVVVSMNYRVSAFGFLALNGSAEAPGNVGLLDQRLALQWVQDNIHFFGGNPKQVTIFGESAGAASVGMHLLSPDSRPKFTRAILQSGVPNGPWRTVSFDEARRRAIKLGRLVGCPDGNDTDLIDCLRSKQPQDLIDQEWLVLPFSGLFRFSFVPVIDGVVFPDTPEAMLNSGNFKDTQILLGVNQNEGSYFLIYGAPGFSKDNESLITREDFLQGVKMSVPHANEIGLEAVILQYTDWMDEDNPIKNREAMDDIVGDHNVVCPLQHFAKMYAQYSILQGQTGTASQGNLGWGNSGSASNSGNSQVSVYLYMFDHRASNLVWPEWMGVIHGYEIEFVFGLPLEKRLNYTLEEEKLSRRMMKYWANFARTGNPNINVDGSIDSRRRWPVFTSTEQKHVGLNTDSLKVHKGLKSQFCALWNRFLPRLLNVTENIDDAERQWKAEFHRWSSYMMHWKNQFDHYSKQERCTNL
Cholinesterase (Equus caballus, UniProt P81908), sequence (P81908 whole entry): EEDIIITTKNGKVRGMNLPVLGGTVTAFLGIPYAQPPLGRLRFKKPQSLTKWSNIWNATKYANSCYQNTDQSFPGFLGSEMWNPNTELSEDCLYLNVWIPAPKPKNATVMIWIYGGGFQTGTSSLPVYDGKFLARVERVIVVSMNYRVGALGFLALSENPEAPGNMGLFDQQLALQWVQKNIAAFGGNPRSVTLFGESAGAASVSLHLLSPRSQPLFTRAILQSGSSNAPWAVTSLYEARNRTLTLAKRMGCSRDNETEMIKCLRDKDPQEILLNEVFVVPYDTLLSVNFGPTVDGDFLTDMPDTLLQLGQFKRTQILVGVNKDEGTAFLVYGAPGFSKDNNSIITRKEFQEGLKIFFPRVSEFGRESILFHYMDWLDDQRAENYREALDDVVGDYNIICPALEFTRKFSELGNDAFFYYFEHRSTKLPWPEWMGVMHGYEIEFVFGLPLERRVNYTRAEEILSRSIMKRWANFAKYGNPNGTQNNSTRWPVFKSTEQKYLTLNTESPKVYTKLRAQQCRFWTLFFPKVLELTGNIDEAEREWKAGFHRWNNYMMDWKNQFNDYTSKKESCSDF
Acetylcholinesterase (Electrophorus electricus), sequence (O42275 24-633 limits assumed): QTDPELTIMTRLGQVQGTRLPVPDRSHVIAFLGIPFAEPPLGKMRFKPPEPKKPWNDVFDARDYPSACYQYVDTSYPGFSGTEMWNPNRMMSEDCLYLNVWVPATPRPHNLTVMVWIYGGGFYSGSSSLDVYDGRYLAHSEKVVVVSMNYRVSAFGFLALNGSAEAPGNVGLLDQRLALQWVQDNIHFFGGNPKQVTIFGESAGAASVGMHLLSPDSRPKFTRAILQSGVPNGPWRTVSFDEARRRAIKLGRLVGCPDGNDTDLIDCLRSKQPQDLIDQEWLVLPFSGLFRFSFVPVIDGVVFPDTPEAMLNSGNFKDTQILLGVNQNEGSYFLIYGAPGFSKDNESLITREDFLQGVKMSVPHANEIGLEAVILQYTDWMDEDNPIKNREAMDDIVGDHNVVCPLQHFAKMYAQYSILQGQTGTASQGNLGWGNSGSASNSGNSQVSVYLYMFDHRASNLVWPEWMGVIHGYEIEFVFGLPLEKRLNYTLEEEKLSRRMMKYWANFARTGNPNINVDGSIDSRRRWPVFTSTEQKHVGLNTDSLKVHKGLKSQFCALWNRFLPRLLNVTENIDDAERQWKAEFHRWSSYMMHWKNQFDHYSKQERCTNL
Cholinesterase (Equus caballus), sequence (P81908 whole entry): as the sequence (P81908 whole entry) above

SMILES	IC50 (Acetylcholinesterase [1]) [µM]	IC50 (Acetylcholinesterase [2]) [µM]	IC50 (Cholinesterase [3]) [µM]	Papp at 100 µM [4] [×10⁻⁶ cm/s]	Activity (SH-SY5Y [10]) [%]	Activity (SH-SY5Y [11])	Activity (SH-SY5Y [12])	Activity (SH-SY5Y [13]) [%]	Activity (SH-SY5Y [14]) [%]	Activity (SH-SY5Y [15])	Activity (SH-SY5Y [16]) [%]	Activity (SH-SY5Y [17]) [%]	Activity [18]	Activity [19]	CD ([20]; MCF7, filed as activator) [µM]	IC50 (Cholinesterase [21]) [µM]	viability at 100 µM (in vitro [22]) [%]	viability at 300 µM (in vitro [23]) [%]	viability at 1000 µM (in vitro [24]) [%]	also measured
COc1ccc2nc3c(c(NCCCCCCCN(CC(=O)NCCc4c[nH]c5ccc(OC)cc45)C(=O)/C=C/c4ccc(O)c(OC)c4)c2c1)CCCC3	0.00837	1.29	0.234	4.2	70.6	56.7%	57.4%	81.4	37.6	30.9%	33.7	41.7	Active	Active	6.31	0.00291	84.7	69.9	68.7	inhibition (Acetylcholinesterase [5]): Active; inhibition (Cholinesterase [6]): Active; Ratio [7]: 3.96; Ratio [8]: 2.43; Ratio [9]: 38
CC(=O)SCCC(=O)NCCCCCCNc1c2c(nc3cc(Cl)ccc13)CCCC2																				Activity [25]: 80.3%
COc1ccc2[nH]cc(CCNC(C)=O)c2c1 [MELATONIN]					35.5	60.2%	15.3%	39.4	47.4	60.7%	50.1	59.1	Active	Active			91.4	71.8	72.3	Activity (SH-SY5Y [26]): 33%; Activity (SH-SY5Y [27]): inactive; Activity (SH-SY5Y [28]): 81.4%; Activity (SH-SY5Y [29]): inactive; Activity (SH-SY5Y [30]): 55.4%; Activity (SH-SY5Y [31]): inactive; Activity (SH-SY5Y [32]): 66.6%; Activity (SH-SY5Y [33]): inactive; CD ([20]; MCF7): > 60 µM
COc1ccc2nc3c(c(NCCCCCCN(CC(=O)NCCc4c[nH]c5ccc(OC)cc45)C(=O)CCCC[C@@H]4CCSS4)c2c1)CCCC3	0.016	> 10	1.88													0.00392	68.7	46.4	44.8	
COc1ccc2nc3c(c(NCCCCCCCN(CC(=O)NCCc4c[nH]c5ccc(OC)cc45)C(=O)CCCC[C@@H]4CCSS4)c2c1)CCCC3	0.00756	> 10	2.65													0.00538	62.8	57.7	48.9	
CC(C)(C)c1cc(O)ccc1O													Active	Active	1.68					
COc1ccc2nc3c(c(NCCCCCCCCN(CC(=O)NCCc4c[nH]c5ccc(OC)cc45)C(=O)/C=C/c4ccc(O)c(OC)c4)c2c1)CCCC3	0.0297	> 10	0.336	1.8	56.3	35.1%	78.9%	28	35.9	inactive	59.6	48	Active	Active	5.99	0.012	61	56	54.4	
COC(=O)/C=C/c1ccc(O)c(OC)c1					27.8	53.9%	inactive	40.7	51.1	56.9%	23.8	21.3								
COc1ccc2nc3c(c(NCCCCCCCCN(CC(=O)NCCc4c[nH]c5ccc(OC)cc45)C(=O)CCCC[C@@H]4CCSS4)c2c1)CCCC3	0.0148	> 10	1.73													0.00822	86.2	77.8	44.9	
COc1ccc2[nH]cc(CCNC(=O)CN(CCCCCCCCNc3c4c(nc5ccccc35)CCCC4)C(=O)CCCC[C@@H]3CCSS3)c2c1	0.00362	0.18	0.211	6.9												0.00125	86.2	58.9	48.8	Ratio IC50 [34]: 4; Ratio IC50 [35]: 12.2
COc1ccc2nc3c(c(NCCCCCCN(CC(=O)NCCc4c[nH]c5ccc(OC)cc45)C(=O)/C=C/c4ccc(O)c(OC)c4)c2c1)CCCC3	0.0178	> 10	0.358	2.2	12	inactive	50.2%	85.1	22.9	42.8%	39.2	29.2			10.9	0.00297	70.3	67.6	56.5	
COc1ccc2[nH]cc(CCNC(=O)CN(CCCCCCCCNc3c4c(nc5ccccc35)CCCC4)C(=O)/C=C/c3ccc(O)c(OC)c3)c2c1	0.0139	0.0437	0.0235	5.8	21.5	66.3%	5.3%	34.5	35.4	51.3%	44.8	59.4			15.7	0.00226	53.3	51.3	49.7	Ratio IC50 (Acetylcholinesterase [36]): 6.91; Ratio IC50 (Cholinesterase [37]): 6.91; inhibition (Acetylcholinesterase [5]): Active; inhibition (Cholinesterase [6]): Active
